Results as given in the PolyMetriX glass transition set.

SMILES | glass transition temperature [°C]
*C(=O)OCC(C)(C)CS(=O)(=O)CC(C)(C)COC(=O)N1CC(C)N(*)CC1C (repeat unit) | 85.00
*C(=O)OCC(C)(C)CSCC(C)(C)COC(=O)C1(C)CNC(*)(C)CN1 (repeat unit) | 40.00
*CC(=C)COCC(=C)COC(=O)O* (repeat unit) | 70.50
*CC(=O)NCCCCCCNC(=O)CO* (repeat unit) | 10.00
*CC(=O)NCCCCCCNC(=O)Cc1ccc(O*)cc1 (repeat unit) | 69.50
*CC(=O)Nc1ccc(Oc2ccc(-c3ccc(Oc4ccc(NC(=O)CN5C(=O)c6ccc(C(c7ccc8c(c7)C(=O)N(*)C8=O)(C(F)(F)F)C(F)(F)F)cc6C5=O)cc4)cc3)cc2)cc1 (repeat unit) | 245.00
*CC(C(C)C)C(COC(=O)c1ccc(C(=O)O*)cc1)C(C)C (repeat unit) | 65.00
*CC(C)(C)C(=O)O* (repeat unit) | -12.00
*CC(C)(C)CO* (repeat unit) | -50.00
*CC(C)(C)COC(=O)C1CCC(C(=O)O*)CC1 (repeat unit) | 30.00
*CC(C)(C)COC(=O)CCCCC(=O)O* (repeat unit) | -31.5
*CC(C)(C)COC(=O)Cc1ccc(C(=O)O*)cc1 (repeat unit) | 33.00
*CC(C)(C)COC(=O)O* (repeat unit) | 25.00
*CC(C)(C)COC(=O)c1ccc(C(=O)O*)cc1 (repeat unit) | 68.00
*CC(C)(C)CS(=O)(=O)CC(C)(C)COC(=O)c1ccc(C(=O)O*)cc1 (repeat unit) | 105.00
*CC(C)(C)CS* (repeat unit) | -49.30
*CC(C)(CC)COC(=O)c1ccc(-c2ccc(C(=O)O*)cc2)cc1 (repeat unit) | 99.00
*CC(C)(CC)COC(=O)c1ccc(C(=O)O*)cc1 (repeat unit) | 63.00
*CC(C)(CC)CS* (repeat unit) | -50.00
*CC(C)(CO*)COCC(F)(F)F (repeat unit) | -41.00
*CC(C)(CO*)COCCC#N (repeat unit) | -52.00

SMILES | glass transition temperature [°C]
*CC(C)(CO*)COCCCCCCCCCCOc1ccc(-c2ccc(C#N)cc2)cc1 (repeat unit) | 7.00
*CC(C)(COC(=O)NCCCCCCNC(=O)O*)C(=O)O (repeat unit) | -26.00
*CC(C)C(C)COC(=O)c1ccc(C(=O)O*)cc1 (repeat unit) | 37.50
*CC(C)CO* (repeat unit) | -55.00
*CC(CC)(CC)C(=O)O* (repeat unit) | 60.00
*CC(CC)(CC)COC(=O)c1ccc(-c2ccc(-c3ccc(C(=O)O*)cc3)cc2)cc1 (repeat unit) | -20.00
*CC(CC)(CC)CS* (repeat unit) | -36.2
*CC(CC)(CO)CO* (repeat unit) | 331.90
*CC(CC)C(CC)COC(=O)c1ccc(C(=O)O*)cc1 (repeat unit) | 32.00
*CC(CCC)C(CCC)COC(=O)c1ccc(C(=O)O*)cc1 (repeat unit) | 30.00
*CC(CCCC)C(CCCC)COC(=O)c1ccc(C(=O)O*)cc1 (repeat unit) | 16.00
*CC(CCCCCCCCCCCC)COC(=O)NC(=O)c1ccc(C(=O)NC(=O)O*)cc1 (repeat unit) | 75.00
*CC(CCCCCCOc1ccc(/N=N/c2ccc(C)cc2)cc1)COC(=O)CCCCC(=O)O* (repeat unit) | 29.00
*CC(CCCCCCOc1ccc(/N=N/c2ccc(OC)cc2)cc1)COC(=O)CCCCC(=O)O* (repeat unit) | 22.00
*CC(CO)(CO)CO* (repeat unit) | 99.00
*CC(CO*)(CS(=O)(=O)C(C)C)CS(=O)(=O)C(C)C (repeat unit) | 91.00
*CC(CO*)(CS(=O)(=O)CCC)CS(=O)(=O)CCC (repeat unit) | 71.00
*CC(CO*)(CS(=O)(=O)CCCC)CS(=O)(=O)CCCC (repeat unit) | 66.00
*CC(CO*)(CS(C)(=O)=O)CS(C)(=O)=O (repeat unit) | 126.00
*CC(CO*)(CSC)CSC (repeat unit) | -6.00
*CC(CO*)(CSCC)CSCC (repeat unit) | -32.00

SMILES | glass transition temperature [°C]
*CC(CO*)(CSCCCCC)CSCCCCC (repeat unit) | -33.00
*CC(CO*)C(C)(C)C (repeat unit) | -4.00
*CC(COc1c(Cl)cc(C(C)(C)c2cc(Cl)c(O*)c(Cl)c2)cc1Cl)OC(C)=O (repeat unit) | 100.00
*CC(COc1ccc(C(C)(c2ccccc2)c2ccc(O*)cc2)cc1)OC(C)=O (repeat unit) | 110.00
*CC(O)COc1ccc(Cc2ccc(O*)cc2)cc1 (repeat unit) | 143.20
*CC(OC(=O)C(CC(C)C)NC(=O)OCc1ccccc1)C(COC(=O)O*)OC(=O)C(CC(C)C)NC(=O)OCc1ccccc1 (repeat unit) | 50.90
*CC(OC(=O)Oc1ccc(C(=O)OC)cc1)C(COC(=O)O*)OC(=O)Oc1ccc(C(=O)OC)cc1 (repeat unit) | 90.90
*CC(OO*)c1ccc(C)cc1 (repeat unit) | 4.60
*CCC(=O)NCc1c(C)c(C)c(CNC(=O)CCO*)c(C)c1C (repeat unit) | 191.00
*CCC(C)Oc1ccc(-c2ccc(C(=O)OCC(C)COC(=O)c3ccc(-c4ccc(O*)cc4)cc3)cc2)cc1 (repeat unit) | 84.00
*CCOCC(=O)O* (repeat unit) | -12.60
*CCSSCCOCO* (repeat unit) | -57.50
*COC(=O)OCC1OC(C)(C)OC1* (repeat unit) | 51.30
*COC(=O)OCC1OC(OCC)OC1* (repeat unit) | 23.50
*COC1OC(*)C(O)C(O)C1O (repeat unit) | 200.00
*C[Si](*)(C)CCCCCC (repeat unit) | -77.60
*C[Si](*)(C)CCCn1c2ccccc2c2ccccc21 (repeat unit) | 71.20
*C[Si](*)(CCC)CCC (repeat unit) | -41.00
*C[Si](*)(CCCCCC)CCCCCC (repeat unit) | -56.00
*C[Si](C)(C)[Si](C)(C)[Si](C)(C)[Si](*)(C)C (repeat unit) | -68.00
*Cc1c(C)c(C)c(CNC(=O)CCCC(=O)N*)c(C)c1C (repeat unit) | 192.00

SMILES | glass transition temperature [°C]
*Cc1cc(C)c(CNC(=O)CCCCC(=O)N*)cc1C (repeat unit) | 70.00
*Cc1ccc(CSSS*)cc1 (repeat unit) | 8.00
*Cc1ccccc1CSS* (repeat unit) | 39.00
*Nc1cccc(NC(=O)c2cc(NC(=O)C(CCSC)N3C(=O)c4ccccc4C3=O)cc(C(*)=O)c2)c1 (repeat unit) | 196.00
*OC(=O)OCC1OC(C)(C)OC1COC(=O)OC1COC2C(*)COC12 (repeat unit) | 95.50
*OC(C)COC(=O)c1ccccc1C(*)=O (repeat unit) | 95.00
*OC(C)COCC(C)OC(=O)c1ccccc1C(*)=O (repeat unit) | 25.00
*OC(COC(=O)C12CC3CC(CC(C(*)=O)(C3)C1)C2)COc1ccc(/N=N/c2ccc(C#N)cc2)cc1 (repeat unit) | 105.00
*OC(COC(=O)C1CCC(C(*)=O)CC1)COc1ccc(/N=N/c2ccc(C#N)cc2)cc1 (repeat unit) | 106.00
*OC(COC(=O)c1cccc(C(*)=O)c1)COc1ccc(/N=N/c2ccc(C#N)cc2)cc1 (repeat unit) | 119.00
*OC(COC(=O)c1ccccc1-c1ccccc1C(*)=O)COc1ccc(/N=N/c2ccc(C#N)cc2)cc1 (repeat unit) | 120.00
*OC(COC(=O)c1ccccc1C(*)=O)COc1ccc(/N=N/c2ccc(C#N)cc2)cc1 (repeat unit) | 105.00
*OC(COCCOC)COC(*)=O (repeat unit) | -50.00
*O[Si](C)(C)COC(=O)CCCCCCCCC(=O)Oc1ccc(S(=O)(=O)c2ccc(Oc3ccc(/C=C4\CCC/C(=C\c5ccc(Oc6ccc(S(=O)(=O)c7ccc(OC(=O)CCCCCCCCC(=O)OC[Si](*)(C)C)cc7)cc6)cc5)C4=O)cc3)cc2)cc1 (repeat unit) | 80.00
*Oc1ccc(C(=O)CNc2ccc(S(=O)(=O)c3ccc(NCC(=O)c4ccc(*)cc4)cc3)cc2)cc1 (repeat unit) | 247.00
*Oc1ccc(C(=O)OCC(C)(C)COC(=O)c2ccc(*)cc2)cc1 (repeat unit) | 73.00
*Oc1ccc(NCC(=O)c2ccc(Sc3ccc(C(=O)CNc4ccc(*)cc4)cc3)cc2)cc1 (repeat unit) | 208.00
*Oc1cccc(NC(=O)c2cc(NC(=O)c3ccc(OC(C)=O)cc3)cc(C(=O)Nc3ccc(*)cc3)c2)c1 (repeat unit) | 251.00
*c1ccc(C(=O)NC(CC)COC(=O)c2ccc(N3C(=O)CC(SCCCCCSC4CC(=O)N(*)C4=O)C3=O)cc2)cc1 (repeat unit) | 91.00
*c1ccc2c(c1)C(=O)N(c1cc(C(=O)Nc3cccc4c(NC(=O)c5ccc(C)c(N6C(=O)c7ccc(C(*)(C(F)(F)F)C(F)(F)F)cc7C6=O)c5)cccc34)ccc1C)C2=O (repeat unit) | 250.00
*c1ccc2c(c1)C(=O)N(c1ccc(OC(CCCCCC)COc3ccc(N4C(=O)c5ccc(C(*)(C(F)(F)F)C(F)(F)F)cc5C4=O)cc3)cc1)C2=O (repeat unit) | 182.00
